Results: ChEMBL document CHEMBL5036382 (ACS Med Chem Lett, 2022)
The source made the active and inactive calls. No cut-off for these calls is given here.

How the values were obtained:
[1] = molecular target: T1, DNA-directed RNA polymerase I subunit RPA1 (Homo sapiens, UniProt O95602); assay: Inhibition of RNA polymerase 1 in human A-375 assessed as RPA194 degradation measured after 3 hrs by Hoechst 33342 staining based assay
[2] = molecular target: T2, Cytochrome P450 1A2 (Homo sapiens, UniProt P05177); assay: Inhibition of recombinant human hepatic CYP1A2 expressed in baculovirus insect cell expression system in presence of CEC substrate measured by fluorescence plate reader assay
T2 sequence (P05177 whole entry): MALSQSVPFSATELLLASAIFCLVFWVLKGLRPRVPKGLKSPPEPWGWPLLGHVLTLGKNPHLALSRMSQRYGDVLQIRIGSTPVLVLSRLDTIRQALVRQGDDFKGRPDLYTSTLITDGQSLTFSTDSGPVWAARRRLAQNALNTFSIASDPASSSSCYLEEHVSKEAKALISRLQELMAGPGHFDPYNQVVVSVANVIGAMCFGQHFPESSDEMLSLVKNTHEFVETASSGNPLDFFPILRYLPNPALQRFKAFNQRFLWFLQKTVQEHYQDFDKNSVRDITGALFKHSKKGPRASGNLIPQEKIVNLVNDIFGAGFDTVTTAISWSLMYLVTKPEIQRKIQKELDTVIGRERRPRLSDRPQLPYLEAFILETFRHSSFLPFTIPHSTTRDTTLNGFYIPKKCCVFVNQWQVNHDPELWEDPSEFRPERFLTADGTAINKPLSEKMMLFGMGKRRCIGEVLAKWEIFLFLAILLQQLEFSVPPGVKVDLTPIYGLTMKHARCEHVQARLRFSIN

[3] = molecular target: Voltage-gated inwardly rectifying potassium channel KCNH2 (Homo sapiens, UniProt Q12809); assay: Inhibition on hERG expressed in HEK293 cells by Qpatch method
Sequence of Voltage-gated inwardly rectifying potassium channel KCNH2 (Q12809 whole entry): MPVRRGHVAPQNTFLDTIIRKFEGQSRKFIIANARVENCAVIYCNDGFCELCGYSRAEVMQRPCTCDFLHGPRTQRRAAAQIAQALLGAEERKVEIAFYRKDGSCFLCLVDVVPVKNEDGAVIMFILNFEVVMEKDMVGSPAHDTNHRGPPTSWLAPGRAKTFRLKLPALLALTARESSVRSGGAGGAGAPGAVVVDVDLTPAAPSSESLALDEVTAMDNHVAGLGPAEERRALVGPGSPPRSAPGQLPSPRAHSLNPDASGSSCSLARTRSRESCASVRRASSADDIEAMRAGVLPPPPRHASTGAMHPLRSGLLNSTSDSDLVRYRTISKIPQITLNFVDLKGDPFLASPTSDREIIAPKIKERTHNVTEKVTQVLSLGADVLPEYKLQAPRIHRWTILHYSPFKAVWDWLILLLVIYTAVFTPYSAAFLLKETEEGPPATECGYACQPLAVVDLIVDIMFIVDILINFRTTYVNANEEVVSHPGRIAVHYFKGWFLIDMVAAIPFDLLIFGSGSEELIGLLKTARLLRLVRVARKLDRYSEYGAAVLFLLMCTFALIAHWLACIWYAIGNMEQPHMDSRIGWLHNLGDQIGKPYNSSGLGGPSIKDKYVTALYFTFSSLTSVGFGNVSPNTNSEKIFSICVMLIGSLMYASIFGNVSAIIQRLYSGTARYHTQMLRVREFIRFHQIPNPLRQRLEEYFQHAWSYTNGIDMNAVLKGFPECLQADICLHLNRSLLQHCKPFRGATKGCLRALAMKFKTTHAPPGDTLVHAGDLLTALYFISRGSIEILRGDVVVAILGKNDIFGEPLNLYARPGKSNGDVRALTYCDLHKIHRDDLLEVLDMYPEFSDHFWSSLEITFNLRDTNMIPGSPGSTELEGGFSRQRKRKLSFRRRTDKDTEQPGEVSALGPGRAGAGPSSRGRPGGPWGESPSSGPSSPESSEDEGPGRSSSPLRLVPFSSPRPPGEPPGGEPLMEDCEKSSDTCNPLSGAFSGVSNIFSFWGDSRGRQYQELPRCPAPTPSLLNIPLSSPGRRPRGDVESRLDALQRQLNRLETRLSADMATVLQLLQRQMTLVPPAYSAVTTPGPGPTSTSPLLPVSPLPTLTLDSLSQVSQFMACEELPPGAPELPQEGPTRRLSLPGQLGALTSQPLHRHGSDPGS

[4] = test system: A-375; assay: Inhibition of RPA2 in human A-375 cells assessed as downregulation of RPA2 gene at 1 uM incubated for 6 hrs measured by qPCR analysis; type: cell-based
[5] = test system: A-375; assay: Inhibition of RPA3 in human A-375 cells assessed as downregulation of RPA3 gene at 1 uM incubated for 6 hrs measured by qPCR analysis; type: cell-based
[6] = Cmax in CD1 mouse at 30 mg/kg, ip; details: in vivo
[7] = AUC (0 to infinity) in CD1 mouse at 30 mg/kg, ip; details: in vivo
[8] = Volume of distribution at steady state in CD1 mouse at 1 mg/kg, iv; type: ADME, organism-based; details: in vivo, read-out: Vdss
[9] = Half life in CD1 mouse at 1 mg/kg, iv; type: ADME, organism-based; details: in vivo
[10] = Half life in CD1 mouse at 30 mg/kg, ip; details: in vivo
[11] = Clearance in CD1 mouse at 1 mg/kg, iv; type: ADME, organism-based; details: in vivo
[12] = molecular target: T1, DNA-directed RNA polymerase I subunit RPA1; assay: Inhibition of RPA1 in human A-375 cells assessed as downregulation of RPA1 gene at 1 uM incubated for 6 hrs measured by qPCR analysis; type: cell-based
[13] = Cmax in CD1 mouse at 30 mg/kg, po; type: ADME, organism-based; parameters: route oral, dose 30 mg/kg; details: in vivo
[14] = AUC (0 to infinity) in CD1 mouse at 1 mg/kg, iv; type: ADME, organism-based; parameters: time infinity, route intravenous, dose 1 mg/kg; details: in vivo
[15] = AUC (0 to infinity) in CD1 mouse at 30 mg/kg, po; type: ADME, organism-based; parameters: route oral, time infinity, dose 30 mg/kg; details: in vivo
[16] = Oral bioavailability in CD1 mouse at 30 mg/kg; type: ADME, organism-based; details: in vivo
[17] = test system: A-375; assay: Cytotoxicity against human A-375 cells assessed as reduction in cell viability incubated for 72 hrs by cell titer glo luminescent assay; details: A-375, 72 h
[18] = Metabolic stability in mouse liver microsomes at 1 uM assessed as intrinsic clearance measured after 45 mins by LC-MS/MS analysis; type: ADME, Microsome; details: read-out: CLH

T1 sequence (O95602 whole entry): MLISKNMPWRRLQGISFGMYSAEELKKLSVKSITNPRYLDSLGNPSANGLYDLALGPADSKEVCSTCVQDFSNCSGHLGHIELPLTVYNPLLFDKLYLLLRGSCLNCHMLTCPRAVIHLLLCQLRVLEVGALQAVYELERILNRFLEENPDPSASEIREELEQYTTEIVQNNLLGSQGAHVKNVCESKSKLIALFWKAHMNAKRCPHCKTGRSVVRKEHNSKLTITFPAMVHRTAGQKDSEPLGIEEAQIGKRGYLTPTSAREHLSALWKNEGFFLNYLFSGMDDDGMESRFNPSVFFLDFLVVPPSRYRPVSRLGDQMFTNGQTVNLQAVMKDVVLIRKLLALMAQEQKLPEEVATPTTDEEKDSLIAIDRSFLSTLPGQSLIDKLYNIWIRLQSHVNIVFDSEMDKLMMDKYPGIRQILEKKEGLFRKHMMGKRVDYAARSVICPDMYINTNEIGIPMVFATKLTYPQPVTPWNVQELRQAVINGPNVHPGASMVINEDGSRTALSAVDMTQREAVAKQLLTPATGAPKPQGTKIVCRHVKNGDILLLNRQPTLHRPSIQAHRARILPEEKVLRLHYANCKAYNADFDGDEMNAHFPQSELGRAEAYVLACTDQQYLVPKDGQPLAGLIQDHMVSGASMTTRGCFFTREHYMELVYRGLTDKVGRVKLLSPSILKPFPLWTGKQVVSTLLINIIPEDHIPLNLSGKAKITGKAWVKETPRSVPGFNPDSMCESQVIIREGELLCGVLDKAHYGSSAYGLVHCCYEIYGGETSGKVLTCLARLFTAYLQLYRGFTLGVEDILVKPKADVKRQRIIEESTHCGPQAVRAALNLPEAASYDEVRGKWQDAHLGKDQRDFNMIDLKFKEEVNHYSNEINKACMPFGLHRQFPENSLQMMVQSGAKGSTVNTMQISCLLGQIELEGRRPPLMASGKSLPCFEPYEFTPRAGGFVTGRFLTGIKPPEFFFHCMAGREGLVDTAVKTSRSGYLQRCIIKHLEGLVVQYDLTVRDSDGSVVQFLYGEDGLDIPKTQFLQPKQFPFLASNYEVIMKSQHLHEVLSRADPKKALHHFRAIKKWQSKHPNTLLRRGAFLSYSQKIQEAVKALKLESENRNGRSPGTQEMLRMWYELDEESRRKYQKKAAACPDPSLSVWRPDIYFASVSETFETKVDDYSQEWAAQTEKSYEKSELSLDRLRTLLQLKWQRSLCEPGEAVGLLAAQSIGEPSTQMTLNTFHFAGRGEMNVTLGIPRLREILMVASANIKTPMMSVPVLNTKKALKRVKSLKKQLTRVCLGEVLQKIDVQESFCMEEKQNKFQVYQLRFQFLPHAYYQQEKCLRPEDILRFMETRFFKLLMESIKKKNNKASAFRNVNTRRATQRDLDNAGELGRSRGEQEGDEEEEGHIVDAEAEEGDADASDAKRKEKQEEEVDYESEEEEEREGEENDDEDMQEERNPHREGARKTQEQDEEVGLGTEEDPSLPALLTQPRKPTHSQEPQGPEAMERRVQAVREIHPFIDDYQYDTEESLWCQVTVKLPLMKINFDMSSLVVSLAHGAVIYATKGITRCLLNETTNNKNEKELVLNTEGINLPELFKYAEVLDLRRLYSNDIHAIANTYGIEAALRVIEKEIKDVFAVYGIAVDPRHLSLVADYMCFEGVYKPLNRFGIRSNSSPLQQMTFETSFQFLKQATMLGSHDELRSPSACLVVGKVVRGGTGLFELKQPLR

Row | IC50 [1] [nM] | Structure (SMILES) | further results
1 | > 10000 | CN(C)CCCNC(=O)c1cccn2c(=O)c3ccc4ccccc4c3nc12 | 
2 | 3940 | CN1CCCC1CNC(=O)c1cccn2c(=O)c3cc4ccccc4cc3nc12 (stereo not drawn) | 
3 | > 10000 | O=C(NC1CNC1)c1cccn2c(=O)c3ccc4ccccc4c3nc12 | IC50 [2]: 200 nM; IC50 [3]: 3970 nM
4 | > 10000 | NCCNC(=O)c1cccn2c(=O)c3ccc4ccccc4c3nc12 | IC50 [2]: > 10000 nM; IC50 [3]: > 10000 nM
5 | > 10000 | O=C(NCCN1CCCC1)c1cccn2c(=O)c3c(ccc4ccccc43)nc12 | 
6 | 6000 | O=C(NCCN1CCCC1)c1cccn2c1nc1cc3ccccc3nc12 | 
7 | > 10000 | O=C(NCCN1CCCC(F)C1)c1cccn2c(=O)c3cc4ccccc4cc3nc12 (stereo not drawn) | 
8 | 780 | O=C(NCC1CCCN1)c1cccn2c(=O)c3cc4ccccc4cc3nc12 (stereo not drawn) | 
9 | 600 | O=C(NCCN1CCC(O)(O)CC1)c1cccn2c(=O)c3cc4ccccc4cc3nc12 | 
10 | 1040 | O=C(NCCN1CCCC1)c1cccn2c(=O)c3cc4c(cc3nc12)OCCO4 | 
11 | 990 | CCN1CCCCC1CNC(=O)c1cccn2c(=O)c3cc4ccccc4cc3nc12 (stereo not drawn) | 
12 | > 10000 | O=C(NCCN1CCS(=O)(=O)CC1)c1cccn2c(=O)c3cc4ccccc4cc3nc12 | 
13 | 10000 | CC(C)N1CCCCC1CNC(=O)c1cccn2c(=O)c3cc4ccccc4cc3nc12 (stereo not drawn) | 
14 | 420 | O=C(NCCN1CCCC1)c1cccn2c(=O)c3cc4c(cc3nc12)OC(F)(F)O4 | 
15 | 600 | CCN(CC)CCNC(=O)c1cccn2c(=O)c3ccc4ccccc4c3nc12 | 
16 | > 10000 | O=C(NCCN1CCCC(F)(F)C1)c1cccn2c(=O)c3cc4ccccc4cc3nc12 | 

Second part, the compound before the results:

Row | Structure (SMILES) | IC50 [1] [nM] | further results
17 | COc1cc2nc3c(C(=O)NCCN4CCCC4)cccn3c(=O)c2cc1OC | 6860 | 
18 | O=C(NCCN1CC[C@@H](F)C1)c1cccn2c(=O)c3ccc4ccccc4c3nc12 | 1900 | IC50 [2]: 2100 nM; IC50 [3]: 8260 nM
19 | O=C(NCCN1CC[C@H](F)C1)c1cccn2c(=O)c3ccc4ccccc4c3nc12 | > 10000 | IC50 [2]: 4500 nM; IC50 [3]: > 10000 nM
20 | CN(C)CCNC(=O)c1cccn2c(=O)c3ccc4ccccc4c3nc12 | 160 | 
21 | O=C(NCCN1CCCC1)c1cccn2c(=O)c3c(ccc4cnncc43)nc12 | 4200 | 
22 | O=C(NCCO)c1cccn2c(=O)c3ccc4ccccc4c3nc12 | 9500 | IC50 [2]: 100 nM; IC50 [3]: > 10000 nM
23 | O=C(NCCN1CCCC1)c1cccn2c(=O)c3cc4c(cc3nc12)CCCC4 | 1390 | 
24 | CN1CCOCC1CNC(=O)c1cccn2c(=O)c3cc4ccccc4cc3nc12 (stereo not drawn) | 1000 | 
25 | CN1CCC(NC(=O)c2cccn3c(=O)c4ccc5ccccc5c4nc23)CC1 | > 10000 | IC50 [2]: > 10000 nM; IC50 [3]: 7390 nM
26 | O=C(NCCN1CCC(F)CC1)c1cccn2c(=O)c3cc4ccccc4cc3nc12 | 780 | 
27 | O=C(NCC1CCCCN1)c1cccn2c(=O)c3cc4ccccc4cc3nc12 (stereo not drawn) | 590 | 
28 | CN(C)CCNC(=O)c1cccn2c(=O)c3cc4ccccc4cc3nc12 |  | inhibition [4]: inactive; inhibition [5]: inactive
29 | O=C(NCCN1CCSCC1)c1cccn2c(=O)c3cc4ccccc4cc3nc12 | 10000 | 
30 | O=C(NCCN1CCCC1)c1cccn2c(=O)c3cc4c(cc3nc12)OCO4 | 540 | 
31 | O=C(NCC1CCCC(CO)N1)c1cccn2c(=O)c3cc4ccccc4cc3nc12 (stereo not drawn) | 650 | 
32 | CN1CCN(CCNC(=O)c2cccn3c(=O)c4ccc5ccccc5c4nc23)CC1 | > 10000 | IC50 [2]: > 10000 nM; IC50 [3]: > 10000 nM
33 | O=C(NCCN1CCCC1)c1cccn2c(=O)c3ccc4ccccc4c3nc12 | 210 | Cmax [6]: 83 ng/mL; AUC(0-inf) [7]: 518 ng·h/mL; Vd [8]: 33.2 L/kg; half-life [9]: 1.22 h; half-life [10]: 7.52 h; clearance [11]: 508 mL/min/kg; inhibition [4]: inactive; inhibition [12]: Active; Cmax [13]: 13.9 ng/mL; AUC(0-inf) [14]: 30.8 ng·h/mL; inhibition [5]: inactive; AUC(0-inf) [15]: 122 ng·h/mL; bioavailability [16]: 13%; IC50 [17]: 38 nM; microsomal CLint at 1 µM [18]: 132 µL/min/mg
34 | O=C(NCCN1CCCCC1)c1cccn2c(=O)c3ccc4ccccc4c3nc12 | 640 | IC50 [2]: > 10000 nM; IC50 [3]: 3720 nM
35 | Cc1cc2nc3c(C(=O)NCCN4CCCC4)cccn3c(=O)c2cc1C | 1160 | 
36 | N#CC1CCN(CCNC(=O)c2cccn3c(=O)c4cc5ccccc5cc4nc23)CC1 | 740 | 
37 | O=C(NCCN1CCC(F)C1)c1cccn2c(=O)c3cc4ccccc4cc3nc12 (stereo not drawn) | 5750 | 
38 | O=C(NCCCN1CCCC1)c1cccn2c(=O)c3ccc4ccccc4c3nc12 | > 10000 | 
39 | O=C(NCCN1CCCC1)c1c(O)ccn2c(=O)c3cc4ccccc4cc3nc12 | 5500 | 
40 | O=C(NCCN1CCC(F)(F)CC1)c1cccn2c(=O)c3cc4ccccc4cc3nc12 | > 10000 | 
41 | CNCCNC(=O)c1cccn2c(=O)c3ccc4ccccc4c3nc12 | 470 | IC50 [2]: 300 nM; IC50 [3]: > 10000 nM
42 | CC(NC(=O)c1cccn2c(=O)c3cc4ccccc4cc3nc12)C1CCCCN1 (stereo not drawn) | 920 | 
43 | O=C(NCCN1CCC(F)(F)C1)c1cccn2c(=O)c3cc4ccccc4cc3nc12 | > 10000 | 
44 | O=C(NCCN1CCCC1)c1cccn2c1nc1cc3ccccc3cc12 | 1700 | 
